According to paper PMC10081574, “Evaluation of Antiviral Activity of Gemcitabine Derivatives against Influenza Virus and Severe Acute Respiratory Syndrome Coronavirus 2” (ACS Infectious Diseases, 2023):
Read-outs that look alike come from different tables or passages of the source.

Assays:
[1] = test system: A/Puerto Rico/8/34 (H1N1); conditions: for SI90 PR8: ratio of CC10 to EC90; for SI50 PR8: ratio of CC50 to EC50
in vitro = conditions: dog
[2] = test system: A/Puerto Rico/8/34 (H1N1); assay: microbe, parasite or virus in culture; conditions: Influenza A virus, 72 h; for EC50 / EC90: H1N1 / PR8, MDCK; for EC50: read-out: EC50 PR8; for EC90: read-out: EC90 PR8; for viability at 10 µM: H1N1|PR8, MDCK, read-out: viability of PR8-infected cells in library screening
A/Hong Kong/8/68 (H3N2) [3] = conditions: for SI90 HK: ratio of CC10 to EC90; for SI50 HK: ratio of CC50 to EC50
[4] = test system: influenza A and B viruses; assay: CPE reduction antiviral assay, values summarised over influenza strains PR8, HK and Lee; type: cell-based, influenza virus; conditions: for EC90 / EC50: span over PR8, HK and Lee; for EC90 / EC50 / subtoxic concentration at which over 90% viability of infected cells was recorded / recovery of viability of virus-infected cells with 90% cutoff: MDCK; for EC90: read-out: EC90 against influenza viruses; for EC50: read-out: EC50 against influenza viruses; for subtoxic concentration at which over 90% viability of infected cells was recorded / recovery of viability of virus-infected cells with 90% cutoff: day 3; for SI90 against influenza viruses / SI50 against influenza viruses: over PR8, HK and Lee; for SI90 against influenza viruses: CC10/EC90; for SI50 against influenza viruses: CC50/EC50
B/Lee/40 = assay: CPE reduction antiviral assay in Lee-infected MDCK cells (MTT); type: cell-based, influenza B virus; conditions: for EC50 / EC90: Influenza B virus, MDCK, 72 h; for EC50: viability of infected cells to 50%; for EC90: read-out: EC90 Lee; for SI50 Lee: ratio of CC50 to EC50; for SI90 Lee: ratio of CC10 to EC90
A/Hong Kong/8/68 (H3N2) [5] = assay: microbe, parasite or virus in culture; conditions: Influenza A virus, H3N2, MDCK, 72 h; for EC50: read-out: EC50 HK; for EC90: read-out: EC90 HK; for viability at 10 µM: read-out: viability of HK-infected cells in library screening
MDCK cells = conditions: dog, 3 days
[6] = MOI 0.001, day 3, viability of infected cells to 90%
[7] = MOI 0.001, day 3, read-out: EC50 Lee

| SMILES | SI90 PR8 [1] | SI50 PR8 [1] | CC50 at 3 days (in vitro) [µM] | EC50 [2] [µM] | EC90 [2] [µM] | SI90 HK (A/Hong Kong/8/68 (H3N2) [3]) | SI50 HK (A/Hong Kong/8/68 (H3N2) [3]) | EC90 ([4]; Influenza A virus, PR8, MDCK) [µM] | SI90 against influenza viruses [4] | SI50 Lee (B/Lee/40) | EC50 (A/Hong Kong/8/68 (H3N2) [5]) [µM] | EC90 (A/Hong Kong/8/68 (H3N2) [5]) [µM] | EC90 (B/Lee/40; [6]) [µM] | EC50 (B/Lee/40; [7]) [µM] | SI90 Lee (B/Lee/40) | CC10 (MDCK cells) [µM] | further results |
| --- | --- | --- | --- | --- | --- | --- | --- | --- | --- | --- | --- | --- | --- | --- | --- | --- | --- |
| O=C(Nc1ccn([C@@H]2O[C@H](CO)[C@@H](O)C2(F)F)c(=O)n1)c1ccccc1 [Compound 1] | > 3.9 | > 6.9 | > 300 | 43.4 ± 8.6 | 76.2 ± 30.9 | > 3.1 | > 5.5 | 76.2 to 98.1 | > 1.9 | > 13.3 | 54.2 ± 5.1 | 98.1 ± 0.2 | – | – | – | – | EC50 ([1]; read-out: EC50 PR8): 43.5 ± 8.6 µM; viability at 10 µM [2]: 10 to 20%; EC50 ([4]; Influenza A virus): 22.5 to 54.2 µM; subtoxic concentration at which over 90% viability of infected cells was recorded [4]: 100 µM; SI50 against influenza viruses [4]: > 5.5; EC50 (B/Lee/40; read-out: EC50 Lee, MDCK, MOI 0.001, day 3): 22.5 ± 0.4 µM; EC90 (B/Lee/40): 78.7 ± 2.7 µM; viability at 10 µM (A/Hong Kong/8/68 (H3N2) [5]): 10 to 20% |
| O=C(Nc1ccn([C@@H]2O[C@H](CO)[C@@H](O)C2(F)F)c(=O)n1)c1ccccn1 [Compound 2a] | 5.5 | > 342.5 | > 300 | 0.9 ± 0.2 | 1.8 ± 0.5 | 7.1 | > 462.2 | 1.4 to 2.2 | 4.4–7.1 | > 495.7 | 0.6 | 1.4 ± 0.1 | 2.2 ± 0.8 | 0.6 | 4.4 | – | viability at 10 µM [2]: > 50%; EC50 ([4]; Influenza A virus): 0.6 to 0.9 µM; subtoxic concentration at which over 90% viability of infected cells was recorded [4]: 3.7 µM; SI50 against influenza viruses [4]: > 342.5; EC90 [4]: 1.4 to 16.9 µM; viability at 10 µM (A/Hong Kong/8/68 (H3N2) [5]): > 50% |
| Cc1ccc(C(=O)Nc2ccn([C@@H]3O[C@H](CO)[C@@H](O)C3(F)F)c(=O)n2)nc1 [Compound 2b] | 8.3 | > 22.4 | > 300 | 13.4 ± 0.9 | 25.3 ± 1.3 | 1.8 | > 5.8 | – | > 1.4 | > 37.3 | 51.8 ± 42.6 | 117 ± 18.5 | 43.8 ± 24.4 | 8.1 ± 0.7 | 4.8 | 209.2 ± 61.7 | – |
| O=C(Nc1ccn([C@@H]2O[C@H](CO)[C@@H](O)C2(F)F)c(=O)n1)c1ccc(F)cn1 [Compound 2f] | > 11.1 | > 41.6 | > 300 | 7.2 ± 0.4 | 26.9 ± 16.3 | > 28.0 | > 49.9 | 10.7 to 34.3 | > 8.7 | > 94.8 | 6 ± 0.1 | 10.7 ± 0.2 | 25.7 ± 6.4 | 3.2 ± 2.3 | > 11.7 | – | – |
| Cc1ccc(C(=O)Nc2ccn([C@@H]3O[C@H](CO)[C@@H](O)C3(F)F)c(=O)n2)cn1 [Compound 3b] | 5.7 | > 325.8 | > 300 | 0.9 | 1.8 ± 0.1 | 7.3 | > 437.2 | 1.4 to 1.8 | – | > 426.6 | 0.7 | 1.4 ± 0.2 | 1.7 | 0.7 | 6.0 | – | recovery of viability of virus-infected cells with 90% cutoff [4]: active |
| O=C(Nc1ccn([C@@H]2O[C@H](CO)[C@@H](O)C2(F)F)c(=O)n1)c1ccc(F)nc1 [Compound 3c] | 20.0 | > 90.6 | > 300 | 3.3 ± 0.1 | 12.5 ± 3.6 | 51.2 | > 116.6 | 4.9 to 22.6 | – | > 170.6 | 2.6 ± 0.4 | 4.9 ± 0.4 | 22.6 ± 2 | 1.8 ± 0.3 | 11.1 | – | recovery of viability of virus-infected cells with 90% cutoff [4]: active |
| O=C(Nc1ccn([C@@H]2O[C@H](CO)[C@@H](O)C2(F)F)c(=O)n1)c1ccc(Cl)nc1 [Compound 3d] | – | > 23.8 | > 300 | 12.6 ± 2.5 | – | – | > 31.5 | – | – | > 28.4 | 9.5 ± 0.3 | – | – | 10.6 ± 1.7 | – | 91.1 ± 53.8 | – |
| COc1ccc(C(=O)Nc2ccn([C@@H]3O[C@H](CO)[C@@H](O)C3(F)F)c(=O)n2)cn1 [Compound 3e] | – | > 12.8 | > 300 | 23.5 ± 4.1 | – | – | > 12.5 | – | – | > 16.2 | 24 ± 2 | – | – | 18.5 ± 2 | – | 129.7 ± 74.0 | – |
| O=C(Nc1ccn([C@@H]2O[C@H](CO)[C@@H](O)C2(F)F)c(=O)n1)c1ccc(C(F)(F)F)nc1 [Compound 3f] | – | > 73.6 | > 300 | 4.1 ± 0.3 | – | – | > 84.7 | – | – | > 73.9 | 3.5 ± 0.6 | – | – | 4.1 ± 0.1 | – | 7.9 ± 8.4 | – |
| Cc1nc(C(F)(F)F)ccc1C(=O)Nc1ccn([C@@H]2O[C@H](CO)[C@@H](O)C2(F)F)c(=O)n1 [Compound 3g] | – | – | > 300 | – | – | – | – | – | – | – | – | – | – | – | – | 8.7 ± 8.2 | antiviral activity against influenza viruses (in words) [4]: completely lost antiviral activity |
| NC(=O)c1nc(F)c[nH]c1=O [Favipiravir, reference compound] | > 35.3 | > 166.7 | > 300 | 1.8 ± 0.1 | 8.5 ± 0.2 | > 43.5 | > 100.0 | – | – | > 200.0 | 3 ± 0.4 | 6.9 ± 1.8 | 16.3 ± 4.2 | 1.5 ± 0.2 | > 18.4 | >300.0 | – |
| CCC(CC)O[C@@H]1C=C(C(=O)O)C[C@H](N)[C@H]1NC(C)=O [Oseltamivir carboxylate, reference compound] | > 24.0 | > 375.0 | > 300 | 0.8 ± 0.4 | 12.5 ± 8.1 | > 600.0 | > 6,000 | – | – | > 30.0 | < 0.05 | 0.5 ± 0.2 | 60.4 ± 0.1 | 10 ± 0.9 | > 5.0 | >300.0 | – |
